Data published in patent publication US20040072824A1, “Methods and compositions for the treatment of cancer” (priority 2001, published 2004).
Where a name gives a salt, the structure may show the parent alone. Read-outs that look alike come from different tables or passages of the source.

Legend:
[1] = system: lymphocytes from healthy donors; test: Cytotoxicity on lymphocytes from healthy donors; assay type: cell-based, human; details: 48 hours after treatment, even at 1:1,000 dilution; three healthy donors
Protocol: (§1) Several dilutions of each compound tested were added to the wells (12 wells per plate, TPP), and 1 ml of cells from the parent solution was added per well after a line had been completed. The dilutions were made using the culture medium, and following dilutions were tested: control, which contained no compound of this invention; 1:100; 1:1,000; 1:2,000; 1:5,000; and 1:10,000. The starting concentrations for these dilutions were: 50 mg/ml for compound A; 10 mg/ml for compound B; 25 mg/ml for compound C; and 5 mg/ml for compound D. The results were analyzed by manual counting and Alamar reduced assay.
The blood from healthy donors was collected on citrate and diluted 1:1 with 0.15M NaCl. The dilution (6 ml) was loaded onto 3 ml of lymphoprep® (Nycomed), and the mixture was centrifuged at 800 g for 30 minutes at room temperature. The white cells were isolated and washed with RPMI1640 and 10% FBS. The white cells were diluted to provide 450,000 cells/m in RPMI1640/10% FSB medium. The tests for the compounds of this invention were performed according to the same procedures described in Section 5.1.1.

[2] = system: Poly ADP-Ribose Polymerase (PARP); test: PARP cleavage in treated U937 cells (western blot); assay type: cell-based; details: 24 hours
Protocol: U937 cells were treated with various concentrations of hydroxyzine and promethazine for 24 hours. The proteins were isolated from these cells and loaded onto a gel for a western blot analysis. A specific anti-PARP antibody was used to visualize the location of PARP.

[3] = system: blastic cells from AML patients; test: Inhibition of viability of fresh leukemic cells (trypan blue exclusion); assay type: cell-based, human; details: Homo sapiens, day 3; for cytotoxicity at 100 µM: 10^-4 M; for cytotoxicity at 10 µM: 10^-5 M
Method in brief: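 Blasts from AML samples 1 to 5 (least to most differentiated) were incubated with or without anti-histamine derivatives, with Polaramine as negative control. Viable counts by trypan blue exclusion at day 3, with Wright-Giemsa morphology. Values are % growth inhibition versus negative control.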

LoVo cancer cells = test: Cytotoxicity on LoVo cancer cells; assay type: cell-based; details: LoVo colorectal adenocarcinoma cells
Protocol: (§2) The cells were grown on their respective propagation medium and seeded 24 hours before the compounds are added. The cells were trypsinized, and 50,000 cells/well and 10,000 cells/well were seeded in order to read the plates at 48 hours and 144 hours after being treated by the compounds, respectively.
(§3) On the day of the treatment, the medium was replaced by 10 ml each of series dilution of the compounds, consisting of: control, which contained no compound of this invention; 1:100 dilution; 1:1,000 dilution; 1:2,000 dilution; and 1:5,000 dilution. The starting concentrations for these dilutions were: 50 mg/ml for compound A; 10 mg/ml for compound B; 25 mg/ml for compound C; and 5 mg/ml for compound D. The dilution was made using the growth medium.

[4] = system: K562, U937, Jurkat, T47-D, MCF7, BT20 and 184B5 cell lines; test: Cytotoxicity in malignant and immortalized cell lines (manual counting, Alamar assay); assay type: cell-based; details: for cytotoxic activity: dilutions greater than 1:1,000, especially about 1:10,000; for cytotoxicity: dilutions of from 1:100 to 1:1,000, 48 and 144 hours after treatment
Protocol: These four compounds were added at different concentrations to cultures of various malignant cell lines and normal cells. The cell lines used for these tests were the following:
All leukemic cell lines were grown and used in logarithmic phase. After one day of treatment, the cells were isolated, counted and diluted in a regular growth medium to provide the cell density of about 75×10^3 cells/ml for reading on plates at 48 hours after the treatment, and […] for reading at 144 hours after the treatment.
as §1, §2, §3
A tested compound is regarded as being active in cytotoxicity where the percentage of surviving cells after the treatment with the compound is less than 30%.

TCTP = TCTP expression in treated U937 cells (western blot); assay type: cell-based; details: 24 hours, various dilutions
Protocol: U937 cells were treated with various dilutions of hydroxyzine, brompheniramine and promethazine for 24 hours as denoted in FIG. 23A. Starting concentrations were: 50 mg/ml for […] (“A”); 10 mg/ml for brompheniramine (“B”); and 25 mg/ml for promethazine (“C”). The proteins were isolated from these cells and loaded onto a gel for western blot analysis. A specific anti-TCTP (anti-HRF) antibody was used to visualize the location of TCTP. […] The level of actin in equal loading of extract was visualized by antiactin antibody (Santa Cruz Biotechnology). No substantial difference between the level of actin in treated and untreated cells was observed.

U937 = assay type: in vivo; details: treatment from day 1, cells inoculated after more than 24 hours, daily administration
Protocol: The second protocol was designed to test the preventive effects of the compounds of this invention on tumorigenesis. In this protocol, the animals have been treated with various compounds of the present invention on day 1. After more than 24 hours, tumoral cells were inoculated. The administration of the compounds of this invention was maintained daily. The cell line used for this test was U937.

[5] = system: MDA-MB-231 (breast cancer line); test: Curative effects on palpable tumors, MDA-MB-231 cells in scid/scid mice; assay type: in vivo; details: 11.25 mg/kg or 22.5 mg/kg daily once tumors palpable
Protocol: In this series of experiments, effects of various compounds of the present invention on tumor development were tested using two protocols. The first protocol is directed to the testing of curative effects of these compounds in different cell lines. In this protocol, cancerous cells are inoculated to the animals, and the inoculated animals were left without any further treatment until the development of tumors. As soon as the tumors became palable (4 mm^3), the compounds of this invention were administered daily to the animals.

U937 cells = test: Antineoplastic activity, U937 cells injected in scid/scid mice, treatment from day 1; assay type: in vivo; details: 11.25 mg/kg daily intraperitoneally; six mice
Protocol: Ten million U937 cells were subcutaneously injected into scid/scid mice. One injection was carried out per each of the 6 mice tested per set. The excipient or the compounds tested were administered intraperitoneally on day 1, i.e., the day of U937 cell line inoculation, of the experiment. The excipients or compounds were administered once daily. The tumor sizes were measured on day 5, day 8, day 12, day 14 and day 19 after the injection.

[6] = 72 h, MEAN over AML patients, read-out: In Vitro Percent Inhibition of Viability, MEAN
[7] = 72 h, patient ID 4, FAB AML2, read-out: In Vitro Percent Inhibition of Viability
[8] = 72 h, patient ID 14, FAB AML5, read-out: In Vitro Percent Inhibition of Viability
[9] = AML1, 72 h, patient ID 1, FAB AML1, read-out: In Vitro Percent Inhibition of Viability

Compound | surviving cell counts [1] | PARP cleavage (induction of apoptosis) [2] | cytotoxicity at 100 µM [3, 6] [%] | cytotoxicity at 10 µM [3, 6] [%] | cytotoxicity at 100 µM [3, 7] [%] | cytotoxicity at 10 µM [3, 7] [%] | cytotoxicity at 100 µM [3, 8] [%] | cytotoxicity at 10 µM [3, 8] [%] | cytotoxicity at 100 µM [3, 9] [%] | cytotoxicity at 10 µM [3, 9] [%] | growth / resistance of LoVo cells (LoVo cancer cells; dihydrochloride) | growth / resistance of LoVo cells (LoVo cancer cells; listed as A, dihydrochloride) | cytotoxic activity [4] | cytotoxicity [4] | expression of TCTP (TCTP) | tumor growth compared to the negative control (U937) | tumor volume [5] | growth / resistance of LoVo cells (LoVo cancer cells) | growth / resistance of LoVo cells (LoVo cancer cells; listed as C) | mice that developed a tumor (U937 cells)
OCCOCCN1CCN(C(c2ccccc2)c2ccc(Cl)cc2)CC1 (stereo not shown) [hydroxyzine, hydroxyzine dihydrochloride] | substantial | cleave PARP | 55 | 12 | 44 | 9 | 45 | 18 | 77 | 10 | unaffected | totally resistant | little cytotoxic activity | very good cytotoxicity | inhibit the expression of TCTP | – | – | – | – | –
CC(CN1c2ccccc2Sc2ccccc21)N(C)C (stereo not shown) [promethazine] | substantial | cleave PARP | – | – | – | – | – | – | – | – | – | – | little cytotoxic activity | very good cytotoxicity | inhibit the expression of TCTP | decrease in tumor growth | The same is also true for certain animals | unaffected | totally resistant | one out of six
